Target: T1, AT1R and CXCR2 (Homo sapiens, UniProt P25025+P30556)
T1 sequence (P30556 1-359): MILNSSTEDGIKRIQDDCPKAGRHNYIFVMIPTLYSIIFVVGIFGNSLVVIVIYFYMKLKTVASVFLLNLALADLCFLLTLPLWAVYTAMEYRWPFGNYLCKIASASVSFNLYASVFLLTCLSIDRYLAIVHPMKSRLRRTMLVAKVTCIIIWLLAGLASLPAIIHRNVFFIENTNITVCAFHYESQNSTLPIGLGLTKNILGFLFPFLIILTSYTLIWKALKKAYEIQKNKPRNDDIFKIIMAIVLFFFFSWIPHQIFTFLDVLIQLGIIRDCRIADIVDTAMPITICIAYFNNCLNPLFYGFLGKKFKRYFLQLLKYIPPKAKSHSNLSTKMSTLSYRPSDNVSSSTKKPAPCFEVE
T1 sequence (P25025 1-360): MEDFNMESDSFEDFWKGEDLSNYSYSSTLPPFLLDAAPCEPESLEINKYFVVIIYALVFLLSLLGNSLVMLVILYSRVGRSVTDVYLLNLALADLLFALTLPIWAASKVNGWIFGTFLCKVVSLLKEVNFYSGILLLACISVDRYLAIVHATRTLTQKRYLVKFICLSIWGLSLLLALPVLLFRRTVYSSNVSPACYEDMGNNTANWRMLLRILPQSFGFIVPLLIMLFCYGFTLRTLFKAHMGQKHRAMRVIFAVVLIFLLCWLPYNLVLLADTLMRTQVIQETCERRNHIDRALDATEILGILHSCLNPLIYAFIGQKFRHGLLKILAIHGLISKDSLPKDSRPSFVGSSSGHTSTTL
Experiment: IP1 accumulation, HEK293 cells transiently-transfected with AT1R and CXCR2
Type: cell-based
Experimental: Referring now to FIG. 2, Receptor activation of the phospholipase C pathway was detected through the measurement of D-myo-Inositol 1-Phosphate (IP1) by competitive immunoassay (IP-one—Gq Kit, Cisbio 62IPAPEC). Human Embryonic Kidney (HEK) 293 cells were transiently transfected in suspension with the AGTR1 vector (Origene RC212008) alone or co-transfected with the CXCR2 vector (Origene Cat RC207794) using FuGene™ HD reagent (Promega E2311). […] Agonists were prepared in a threefold serial dilution in stimulation buffer+0.1% BSA and added to the assay to give the appropriate final concentration-response curves, and co-stimulation at a single concentration as required. An IP1 standard curve was also constructed in 14 μl Stimulation Buffer+0.1% BSA. Incubations were conducted for 90 min at 37° C., 5% CO2, after which 3 μl IP1-d2 Reagent and 3 μl IP1 Tb Cryptate Antibody (Cisbio 62IPAPEC), in Lysis & Detection buffer, were added to each well for 60 min at room temperature. Plates were read on a HTRF® compatible reader (PHERAstar™, BMG Labtech), using 337 nm excitation and collecting donor/acceptor emission at 620 nm and 665 nm. A standard curve was plotted to interpolate unknown HTRF ratio (665/620×10 000) measurements as IP1 concentration (nM). […]

For Angiotensin II [AngII], the “Rmax, IP1 accumulation” value was 567 nM.

Source: US20240009191A1, “METHOD AND COMPOSITION FOR THE TREATMENT OF DISEASE” (DIMERIX BIOSCIENCE PTY LTD, priority 2019, published 2024)
